Test results from ChEMBL document CHEMBL1201862, “PubChem BioAssay data set” (2004).
Each block holds one compound with its values, some of them ahead of it. Active and inactive are the calls of the source.

Experiments:
J774.A1 = experiment: Confirmation of image-based Screening Assay for Inhibitors of Phagocytosis. [Related pubchem assays (depositor defined):AID1029, AID1643]; assay type: functional, cell-based; details: Mus musculus
Integrin alpha-4 = Integrin alpha-4 (Homo sapiens, UniProt P13612); experiment: VLA-4 integrin allosteric ligands, SAR follow-up, cell-based, LIBS antibody binding, flow cytometry (AID 488791); assay type: functional
Integrin alpha-4, sequence (P13612 whole entry): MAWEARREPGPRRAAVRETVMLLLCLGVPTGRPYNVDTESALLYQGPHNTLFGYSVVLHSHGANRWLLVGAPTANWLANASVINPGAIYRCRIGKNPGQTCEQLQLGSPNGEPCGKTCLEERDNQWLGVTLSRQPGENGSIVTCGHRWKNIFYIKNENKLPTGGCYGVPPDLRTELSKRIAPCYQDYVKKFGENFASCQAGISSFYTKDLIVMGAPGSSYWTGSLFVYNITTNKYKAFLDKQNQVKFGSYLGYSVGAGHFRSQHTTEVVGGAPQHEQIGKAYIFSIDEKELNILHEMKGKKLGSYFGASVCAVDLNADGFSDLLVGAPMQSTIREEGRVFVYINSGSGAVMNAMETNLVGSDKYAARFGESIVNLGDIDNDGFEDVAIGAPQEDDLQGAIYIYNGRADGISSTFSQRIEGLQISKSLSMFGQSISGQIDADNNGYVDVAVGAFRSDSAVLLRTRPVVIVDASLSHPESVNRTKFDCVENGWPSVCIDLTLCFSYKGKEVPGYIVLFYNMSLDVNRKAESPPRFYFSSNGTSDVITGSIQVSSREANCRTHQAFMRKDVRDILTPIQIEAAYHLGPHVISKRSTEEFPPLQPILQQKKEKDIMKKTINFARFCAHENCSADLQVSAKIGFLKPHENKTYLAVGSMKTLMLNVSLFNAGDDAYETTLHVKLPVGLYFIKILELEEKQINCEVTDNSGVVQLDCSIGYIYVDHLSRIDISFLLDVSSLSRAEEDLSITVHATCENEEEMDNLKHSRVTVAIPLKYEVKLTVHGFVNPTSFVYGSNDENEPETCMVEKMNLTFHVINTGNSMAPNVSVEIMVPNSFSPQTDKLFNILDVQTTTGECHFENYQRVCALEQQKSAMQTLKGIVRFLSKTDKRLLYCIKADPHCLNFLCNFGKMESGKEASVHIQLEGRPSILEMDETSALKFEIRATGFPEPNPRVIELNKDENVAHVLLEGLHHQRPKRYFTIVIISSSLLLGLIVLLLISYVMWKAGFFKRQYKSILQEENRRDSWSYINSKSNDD

[1] = target: Delta-type opioid receptor (Homo sapiens, UniProt P41143); experiment: SAR Analysis of Antagonists of the DOR Receptor using an Image-Based Assay - Set 3. [Related pubchem assays (depositor defined):AID1777, AID1785]; assay type: functional;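 also: U2OS cells expressing DOR1 and beta-arrestin GFP stimulated with 100 nM SNC80; imaging of GFP-tagged beta-arrestin moving into spots after receptor activation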
Delta-type opioid receptor, sequence (P41143 whole entry): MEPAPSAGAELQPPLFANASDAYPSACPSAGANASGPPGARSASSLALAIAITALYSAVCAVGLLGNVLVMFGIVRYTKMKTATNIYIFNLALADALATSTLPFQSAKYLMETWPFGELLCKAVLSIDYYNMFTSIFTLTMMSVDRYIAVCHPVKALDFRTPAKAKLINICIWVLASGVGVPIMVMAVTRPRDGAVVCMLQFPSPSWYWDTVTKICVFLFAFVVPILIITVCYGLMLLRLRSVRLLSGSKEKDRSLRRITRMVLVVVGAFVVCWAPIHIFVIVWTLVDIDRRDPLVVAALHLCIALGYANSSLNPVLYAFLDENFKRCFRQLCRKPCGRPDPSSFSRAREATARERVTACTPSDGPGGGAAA

Mu-type opioid receptor = Mu-type opioid receptor (Homo sapiens, UniProt P35372); experiment: SAR Analysis of Antagonists of the MOR Receptor using an Image-Based Assay - Set 3. [Related pubchem assays (depositor defined):AID1777, AID1785, AID1786, AID1966, AID2133, AID2136, AID2284, AID2285, AID2420]; assay type: functional
Mu-type opioid receptor, sequence (P35372 whole entry): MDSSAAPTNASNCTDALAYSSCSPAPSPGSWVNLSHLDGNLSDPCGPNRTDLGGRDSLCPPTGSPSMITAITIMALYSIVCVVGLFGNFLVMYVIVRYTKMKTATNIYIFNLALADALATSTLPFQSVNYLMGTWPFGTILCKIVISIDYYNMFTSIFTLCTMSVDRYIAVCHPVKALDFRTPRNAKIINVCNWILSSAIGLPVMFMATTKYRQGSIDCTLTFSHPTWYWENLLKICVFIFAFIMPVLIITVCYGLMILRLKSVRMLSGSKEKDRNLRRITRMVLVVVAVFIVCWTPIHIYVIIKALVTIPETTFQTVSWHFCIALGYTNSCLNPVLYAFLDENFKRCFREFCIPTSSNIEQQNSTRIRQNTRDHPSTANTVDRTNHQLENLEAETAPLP

[2] = target: T1, Kappa-type opioid receptor (Homo sapiens, UniProt P41145); experiment: SAR analysis of small molecule antagonists of the kappa opioid receptor via a luminescent beta-arrestin assay - Set 3. [Related pubchem assays (depositor defined):AID1777, AID1778, AID1785, AID1786, AID1966, AID2133, AID2136, AID2285, AID2495]; assay type: functional
T1 sequence (P41145 whole entry): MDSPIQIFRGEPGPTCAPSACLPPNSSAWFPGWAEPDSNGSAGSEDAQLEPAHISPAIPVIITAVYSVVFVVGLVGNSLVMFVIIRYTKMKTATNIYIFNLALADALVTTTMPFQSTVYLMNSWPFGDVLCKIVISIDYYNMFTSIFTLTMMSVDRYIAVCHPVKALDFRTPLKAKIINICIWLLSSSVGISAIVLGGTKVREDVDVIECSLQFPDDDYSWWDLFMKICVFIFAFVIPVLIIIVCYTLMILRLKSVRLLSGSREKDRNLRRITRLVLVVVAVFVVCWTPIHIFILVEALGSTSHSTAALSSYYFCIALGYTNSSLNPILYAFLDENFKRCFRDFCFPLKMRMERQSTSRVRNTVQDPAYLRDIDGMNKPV

[3] = target: T1, Kappa-type opioid receptor; experiment: SAR analysis of Antagonists of the Kappa Opioid Receptor (KOR) using an Image-Based Assay - Set 4. [Related pubchem assays (depositor defined):AID1777, AID1785]; assay type: functional
[4] = target: T1, Kappa-type opioid receptor; experiment: SAR analysis of small molecule antagonists of the kappa opioid receptor via a luminescent beta-arrestin assay - Set 6. [Related pubchem assays (depositor defined):AID1777, AID1778, AID1785, AID1786, AID1966, AID2133, AID2136, AID2285]; assay type: functional
[5] = HEp-2 cell cytotoxicity, dose response, cytotoxicity control for RSV inhibitor project, HTS (AID 2410); assay type: functional; details: human respiratory syncytial virus
[6] = target: E3 ubiquitin-protein ligase Mdm2/Protein Mdm4 (Homo sapiens, UniProt O15151+Q00987); experiment: Mdm2-MdmX interaction inhibitors, dose response, luminescence detection (AID 504593); assay type: functional
E3 ubiquitin-protein ligase Mdm2/Protein Mdm4, sequence (Q00987 whole entry, the tested form may be a part): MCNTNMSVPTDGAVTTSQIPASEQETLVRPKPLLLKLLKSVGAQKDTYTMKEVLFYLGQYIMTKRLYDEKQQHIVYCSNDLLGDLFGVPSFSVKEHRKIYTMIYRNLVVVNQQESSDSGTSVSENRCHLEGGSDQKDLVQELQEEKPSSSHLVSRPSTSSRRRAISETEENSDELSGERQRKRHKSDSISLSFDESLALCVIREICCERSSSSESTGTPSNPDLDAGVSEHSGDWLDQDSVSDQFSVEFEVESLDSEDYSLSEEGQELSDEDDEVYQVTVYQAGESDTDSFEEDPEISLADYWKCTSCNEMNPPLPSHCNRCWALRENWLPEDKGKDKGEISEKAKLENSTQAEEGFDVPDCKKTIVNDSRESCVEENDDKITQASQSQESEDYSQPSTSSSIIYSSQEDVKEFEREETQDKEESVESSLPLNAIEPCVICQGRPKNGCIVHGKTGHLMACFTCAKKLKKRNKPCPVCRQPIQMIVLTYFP
E3 ubiquitin-protein ligase Mdm2/Protein Mdm4, sequence (O15151 whole entry, the tested form may be a part): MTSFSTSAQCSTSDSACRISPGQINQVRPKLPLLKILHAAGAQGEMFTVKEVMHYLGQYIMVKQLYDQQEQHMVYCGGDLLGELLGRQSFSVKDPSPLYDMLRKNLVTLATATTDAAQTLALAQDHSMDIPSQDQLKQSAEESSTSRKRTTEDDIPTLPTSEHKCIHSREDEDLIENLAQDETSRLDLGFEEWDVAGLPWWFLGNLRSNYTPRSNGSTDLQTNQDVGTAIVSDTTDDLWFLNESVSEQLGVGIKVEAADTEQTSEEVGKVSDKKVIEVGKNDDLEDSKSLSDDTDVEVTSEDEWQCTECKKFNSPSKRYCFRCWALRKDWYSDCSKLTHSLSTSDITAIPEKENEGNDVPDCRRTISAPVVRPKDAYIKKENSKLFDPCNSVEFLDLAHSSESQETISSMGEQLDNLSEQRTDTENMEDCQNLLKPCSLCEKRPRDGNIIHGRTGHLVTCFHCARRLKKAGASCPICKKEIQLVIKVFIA

[7] = target: NACHT, LRR and PYD domains-containing protein 3 (Homo sapiens, UniProt Q96P20); experiment: NALP3 inhibitors in yeast, dose response, luminescent (AID 488799); assay type: functional
[8] = target: T2, Scavenger receptor class B member 1 (Mus musculus, UniProt Q61009); experiment: inhibitors of SR-BI mediated HDL lipid uptake, dose response, ldlA[mSR-BI] cells, fluorescence, cherry pick (AID 493194); assay type: functional, cell-based;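 also: cellular uptake of fluorescent DiI-labeled HDL measured as cell fluorescence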
T2 sequence (Q61009 whole entry): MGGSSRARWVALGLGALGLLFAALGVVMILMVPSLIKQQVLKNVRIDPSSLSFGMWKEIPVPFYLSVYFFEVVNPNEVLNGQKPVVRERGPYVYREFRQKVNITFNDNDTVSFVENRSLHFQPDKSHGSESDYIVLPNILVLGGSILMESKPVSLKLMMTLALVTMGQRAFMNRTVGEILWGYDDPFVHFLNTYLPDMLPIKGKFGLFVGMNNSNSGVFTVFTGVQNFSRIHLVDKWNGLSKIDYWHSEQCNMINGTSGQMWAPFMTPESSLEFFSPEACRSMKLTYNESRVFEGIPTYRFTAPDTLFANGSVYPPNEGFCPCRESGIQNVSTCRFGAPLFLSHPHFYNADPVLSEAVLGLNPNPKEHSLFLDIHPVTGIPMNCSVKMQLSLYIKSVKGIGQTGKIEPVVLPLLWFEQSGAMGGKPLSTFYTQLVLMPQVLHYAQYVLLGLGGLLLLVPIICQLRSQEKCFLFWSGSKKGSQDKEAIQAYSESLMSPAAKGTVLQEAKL

[9] = target: Induced myeloid leukemia cell differentiation protein Mcl-1 (Homo sapiens, UniProt Q07820); assay type: functional
Induced myeloid leukemia cell differentiation protein Mcl-1, sequence (Q07820 whole entry): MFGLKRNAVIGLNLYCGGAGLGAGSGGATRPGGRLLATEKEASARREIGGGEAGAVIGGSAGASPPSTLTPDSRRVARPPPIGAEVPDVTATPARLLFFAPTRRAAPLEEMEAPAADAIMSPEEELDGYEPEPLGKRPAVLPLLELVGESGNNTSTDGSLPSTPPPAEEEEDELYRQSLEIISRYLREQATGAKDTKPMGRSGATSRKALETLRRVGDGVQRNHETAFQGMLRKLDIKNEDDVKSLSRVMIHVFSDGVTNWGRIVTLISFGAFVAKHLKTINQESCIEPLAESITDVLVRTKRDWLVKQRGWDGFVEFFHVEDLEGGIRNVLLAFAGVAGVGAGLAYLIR

Leucine aminopeptidase = target: T3, Leucine aminopeptidase (Plasmodium falciparum 3D7, UniProt Q8IL11); experiment: P. falciparum M17LAP inhibitors, primary screen, biochemical, fluorogenic H-Leu-NHMec substrate, 1536-well (AID 1619); assay type: functional
T3 sequence (Q8IL11 whole entry): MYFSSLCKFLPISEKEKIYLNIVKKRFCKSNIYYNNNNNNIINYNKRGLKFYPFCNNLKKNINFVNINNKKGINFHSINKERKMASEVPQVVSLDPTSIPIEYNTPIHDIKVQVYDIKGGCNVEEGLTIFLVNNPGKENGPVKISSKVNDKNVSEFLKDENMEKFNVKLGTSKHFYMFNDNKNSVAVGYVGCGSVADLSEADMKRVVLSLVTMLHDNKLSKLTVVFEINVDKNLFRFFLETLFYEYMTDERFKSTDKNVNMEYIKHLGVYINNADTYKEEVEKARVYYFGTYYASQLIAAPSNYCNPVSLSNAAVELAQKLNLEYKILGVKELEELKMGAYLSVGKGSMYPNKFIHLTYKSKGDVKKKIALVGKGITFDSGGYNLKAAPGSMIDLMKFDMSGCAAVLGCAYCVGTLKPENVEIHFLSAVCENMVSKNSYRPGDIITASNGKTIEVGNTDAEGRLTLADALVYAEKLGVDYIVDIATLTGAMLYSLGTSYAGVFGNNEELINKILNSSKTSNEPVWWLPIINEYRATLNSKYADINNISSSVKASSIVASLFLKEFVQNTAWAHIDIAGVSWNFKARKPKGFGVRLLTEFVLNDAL

[10] = target: T4, Polyadenylate-binding protein 1 (Homo sapiens, UniProt P11940); experiment: PABP inhibition in translation initiation, SAR follow-up (AID 435018); assay type: functional
T4 sequence (P11940 whole entry): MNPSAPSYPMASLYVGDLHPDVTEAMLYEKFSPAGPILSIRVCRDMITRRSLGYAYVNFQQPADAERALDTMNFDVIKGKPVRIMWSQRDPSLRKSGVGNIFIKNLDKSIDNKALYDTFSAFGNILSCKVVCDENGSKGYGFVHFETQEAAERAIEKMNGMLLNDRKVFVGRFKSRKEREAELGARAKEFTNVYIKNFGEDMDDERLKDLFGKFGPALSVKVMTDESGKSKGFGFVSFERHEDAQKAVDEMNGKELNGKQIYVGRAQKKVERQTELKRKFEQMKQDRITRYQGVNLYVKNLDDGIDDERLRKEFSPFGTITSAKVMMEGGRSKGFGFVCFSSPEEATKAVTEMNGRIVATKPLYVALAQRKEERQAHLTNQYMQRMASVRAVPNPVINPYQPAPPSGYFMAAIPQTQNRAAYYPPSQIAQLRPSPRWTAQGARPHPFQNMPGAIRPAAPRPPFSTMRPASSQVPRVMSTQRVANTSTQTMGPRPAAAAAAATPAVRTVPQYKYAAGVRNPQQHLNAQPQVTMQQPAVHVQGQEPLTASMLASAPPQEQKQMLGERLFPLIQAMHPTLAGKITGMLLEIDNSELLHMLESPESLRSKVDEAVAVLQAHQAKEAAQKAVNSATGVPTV

[11] = target: T5, Eukaryotic translation initiation factor 4H (Homo sapiens, UniProt Q15056); experiment: eIF4H inhibition in translation initiation, SAR follow-up (AID 435011); assay type: functional
[12] = target: T4, Polyadenylate-binding protein 1; experiment: PABP poly(A) RNA binding inhibitors, primary screen, biochemical, fluorescence polarization, uHTS (AID 2014)
[13] = target: T5, Eukaryotic translation initiation factor 4H; experiment: human eIF4H binding inhibitors, primary screen, translation initiation inhibitor project, biochemical, uHTS, fluorescence polarization (AID 2012)

SMILES: Cc1ccc(Nc2nc(-c3c(C)nc4ccccn34)cs2)cc1
IC50 (J774.A1): < 0.05 µM (inactive)

SMILES: Cc1csc2nc(O)c(C(=O)NCCC3=CCCCC3)c(=O)n12
IC50 [7]: 4.07 µM (active)

SMILES: CC1CCc2c(sc(Nc3nc4c(F)cccc4s3)c2C(N)=O)C1 (configuration not stated)
AC50 [8]: 10.9 µM (active)
IC50 [9]: 3.83 µM (active)
IC50 (Leucine aminopeptidase): 18 µM (active)

SMILES: COc1cccc(CNC(=O)CSc2ccc(-c3ccco3)nn2)c1
IC50 [10]: > 100 µM (inactive)
IC50 [11]: > 100 µM (inactive)
IC50 [12]: > 100 µM (inactive)
IC50 [13]: 34.9 µM (active)

Now from value to compound, other results behind:

EC50 (Integrin alpha-4): 3.89 µM (active)
SMILES: FC(F)Oc1ccc(C2=Nn3c(nnc3-c3ccccc3Cl)SC2)cc1OCC1CC1

IC50 [1]: > 32 µM (inactive)
IC50 (Mu-type opioid receptor): 30.9 µM (inactive)
IC50 [2]: 0.154 µM (active)
IC50 [3]: 0.00406 µM (active)
IC50 [4]: 0.225 µM (active)
SMILES: COc1ccc(N2CCN(CCCNC(=O)Cn3c(=O)c4cccn4c4c(C)ccnc43)CC2)c(OC)c1

IC50 [6]: 3.68 µM (active)
SMILES: Cc1cccn2c(=O)c3cc(C(=O)NCCc4ccccc4)c(=N)n(Cc4ccco4)c3nc12
CC50 [5]: 15.5 µM (active)
